The test has as its target T1, DC-SIGN (Homo sapiens, UniProt Q9NNX6).
T1 sequence (Q9NNX6 62-404): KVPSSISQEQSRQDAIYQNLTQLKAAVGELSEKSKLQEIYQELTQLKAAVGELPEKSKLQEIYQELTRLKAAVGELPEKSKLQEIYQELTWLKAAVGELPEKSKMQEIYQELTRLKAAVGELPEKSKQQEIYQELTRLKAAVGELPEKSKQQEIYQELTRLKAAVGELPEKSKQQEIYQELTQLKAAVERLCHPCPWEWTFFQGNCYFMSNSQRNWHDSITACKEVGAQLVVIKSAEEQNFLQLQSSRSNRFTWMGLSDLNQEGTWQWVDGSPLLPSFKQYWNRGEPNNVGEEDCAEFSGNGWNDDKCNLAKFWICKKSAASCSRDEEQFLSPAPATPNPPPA
Kind of test: free-glycan inhibition of DC-SIGN binding to HMG microarrays.

In general, IC50 refers to the concentration that inhibits the measured activity by half. Low values mean greater potency in that assay, high ones weaker potency in that assay.

The compound `C[C@@H]1O[C@@H](O[C@H]2[C@H](O[C@H]3[C@H](O)[C@@H](O)C(O)O[C@@H]3CO)O[C@H](CO)[C@H](O)[C@@H]2O)[C@@H](O)[C@H](O)[C@@H]1O` (stereo partly shown) [2′-FL, 2′-fucosyllactose] displayed a half-maximal inhibitory concentration (IC50) of about 1 mM.

Source of the values: PMC4875834 (The Biochemical journal, 2016).
